From PMC9715707, “Identification of a novel peptide ligand for the cancer-specific receptor mutation EGFRvIII using high-throughput sequencing of phage-selected peptides” (Scientific Reports, 2022)
“Also recorded” adds a separate entry of the source. Where no end group is shown, it is not given here. The star is where a group is joined. FITC = O=C1OC2(c3ccc(O)cc3Oc3cc(O)ccc32)c2ccc(NC(=S)*)cc21; Ahx = NCCCCCC(=O)O

Key:
EGFRvIII = biological target: T1, EGFRvIII (Homo sapiens, UniProt P00533, DELINS30-297G); test: Microscale thermophoresis, EGFRvIII in solution; assay type: binding; settings: read-out: Kd for EGFRvIII (MST, estimated)
T1 construct: using purified and active extracellular domain of the EGFRvIII protein; purchased Sino Biological 29662-H08B

CLTH/EGFR WT cells [1] = test: Flow cytometry cellular binding of FITC-Ahx-peptides, EGFR WT cells; assay type: cell-based, human; settings: 10 µM FITC-Ahx-peptide, 20 min at RT, 0.2% DMSO, MFI minus blank cells divided by spectrofluorometer correction factor
Description: (§1) Flow cytometry analysis was also performed to quantitatively analyze the binding affinity of the synthetized peptides to the different cell types. Briefly, 293T, CLTH/EGFR WT and CLTH/EGFRvIII cells (100,000 cells, 500 µL) were plated in 24-well plates and incubated overnight at 37 °C in a humidified atmosphere containing 5% CO2 overnight. The next day, cells were treated with FITC-Ahx-peptides using a stock solution in pure DMSO at 5 mM to reach a final concentration of 1, 5 or 10 µM (final percentage of DMSO of 0.2%). Plates were incubated for 20 min at RT. Cells were detached from the plates by a PBS wash, transferred to FACS tubes and washed two times with 4 mL of PBS. Cells were stained with LIVE/DEAD™ Fixable Near-IR Dead Cell Stain Kit (Thermofisher) as a viability marker. Cells were analyzed by flow cytometry on a MACSQuant Analyser 16 (Miltenyi Biotec) using the MACS Quantify software to acquire and process the data. LIVE/DEAD™ Fixable dye was excited at 640 nm and fluorescence was collected with the 785/62 nm filter. FITC was excited at 488 nm and fluorescence was collected with the 525/50 nm filter. Viable cells were gated, FITC fluorescence intensity was recorded and the mean fluorescence intensity (MFI) was measured. MFI values were then normalized by subtracting MFI from blank cells and dividing by the correction factor determined using a spectrofluorometer.
Since FITC fluorescence can be impacted by the nature of the amino acids in the peptide sequence and since the conjugation rate of FITC in the peptide synthesis can fluctuate, it was needed to measure a correction factor according to the fluorescence intensity of each peptide. As flow cytometry cannot analyze fluorescence of small molecules, a spectrofluorometer was used in similar conditions (excitation and emission) to the flow cytometry conditions. […] Fluorescence intensities at 525 nm of the FITC-Ahx-peptides in PBS were measured using a Varioskan plate reader (Thermo Scientific) and the SkanIt Software 5.0. […] Linear regressions were determined for each peptide. […]

293T cells [2] = test: Flow cytometry cellular binding of FITC-Ahx-peptides, 293T cells; assay type: cell-based, human; settings: 20 min at RT; for Normalized MFI at 10 µM, 293T: 293T cells (negative control), 10 µM FITC-Ahx-peptide, 0.2% DMSO, MFI minus blank cells divided by spectrofluorometer correction factor
Description: as §1
Since FITC fluorescence can be impacted by the nature of the amino acids in the peptide sequence and since the conjugation rate of FITC in the peptide synthesis can fluctuate, it was needed to measure a correction factor according to the fluorescence intensity of each peptide. As flow cytometry cannot analyze fluorescence of small molecules, a spectrofluorometer was used in similar conditions (excitation and emission) to the flow cytometry conditions. Experiments were performed by the flow cytometry core facility at Institut Mondor de Recherche Biomédical (IMRB U955, France). Fluorescence intensities at 525 nm of the FITC-Ahx-peptides in PBS were measured using a Varioskan plate reader (Thermo Scientific) and the SkanIt Software 5.0. Samples with concentrations between at 0.625, 1.25, 2.5, 5, 10 and 20 µM were prepared in triplicates using stock solutions of peptides in DMSO at 5 mM. Samples (100 µL) were analyzed in a 96-well plate using the following conditions: temperature of 25 °C, excitation wavelength at 490 nm, excitation bandwidth of 5 nm, emission wavelength at 525 nm, by step of 1 nm, measurement time 100 ms, and upper lens. Linear regressions were determined for each peptide. The correction factor was determined by dividing each slope by the arbitrary value 100 and was used to normalize the MFI obtained by flow cytometry.

CLTH/EGFRvIII cells [3] = test: Flow cytometry binding of phage-displayed peptides, EGFRvIII cells; assay type: cell-based, human; settings: phage-displayed peptide (M13), ~10^10 phages pre-absorbed on 293T cells, 1 h at 4 °C; anti-M13_biotin + anti-biotin_PE vs secondary-only
Description: (§2) Prior to being tested with the selected phages or peptides, each cell line was incubated with different commercial antibodies to confirm their phenotype (Fig. S3). A monoclonal anti-EGFR WT antibody (Life Technologies) and an anti-EGFRvIII primary antibody (Millipore) were used in flow cytometry experiments to evaluate the expression of EGFR WT and EGFRvIII receptors on CLTH/EGFR WT cells and CLTH/EGFRvIII cells respectively. Anti-IgG1 conjugated to phycoerythrin (PE) (Miltenyi Biotec) was used as a secondary antibody to read the fluorescence of PE. 293T cells were tested as a negative control. A phage-free control experiment was also performed on each cell type prior to testing phages. Anti-M13 conjugated to biotin (Abcam) was used as a primary antibody, anti-mouse IgG3 kappa monoclonal conjugated to biotin (Abcam) as isotype control and anti-biotin conjugated to PE (Miltenyi Biotec) as secondary antibody. A list of the antibodies is available in Table S3.
Binding of the selected phages on 293T human embryo kidney, CLTH/EGFR WT and CLTH/EGFRvIII cells was characterized by flow cytometry. Approximately 1 × 10^6 293T cells (expressing endogenous levels of EGFR WT) were collected, washed with cold PBS and blocked with 2%w/v milk-PBS (MPBS), rotating for 30 min at 4 °C. […] The blocked phages were then added to the blocked cells and incubated rotating for 1 h at 4 °C. After centrifugation at 500g for 3 min, the supernatant containing non-bound phages was collected. This step allowed the removal of phages that interacted with this EGFR negative cell line (i.e. not an EGFR-specific binding). The supernatant was then used to resuspend transfected cells washed beforehand (CLTH/EGFR WT expressing EGFR WT and CLTH/EGFRvIII expressing EGFRvIII). Treated cells were incubated for 1 h at 4 °C, collected by centrifugation and washed two times with PBS at pH 7.4. Cells were stained with Viobility™ 405/520 fixable dye (Miltenyi Biotec) as a viability marker. Cells were analyzed by flow cytometry on a MACSQuant Analyser 16 (Miltenyi Biotec) using the MACS Quantify software to acquire and process the data. Viobility™ 405/520 fixable dye was excited at 405 nm and fluorescence was collected with the 525/50 nm filter. PE was excited at 488 nm and fluorescence was collected with the 579/34 nm filter. Viable cells were gated, and PE fluorescence intensity was recorded.

CLTH/EGFRvIII cells [4] = test: Flow cytometry cellular binding of FITC-Ahx-peptides, EGFRvIII cells; assay type: cell-based, human; settings: for Normalized MFI at 10 µM, vIII: EGFRvIII cells, 10 µM FITC-Ahx-peptide, 0.2% DMSO, MFI minus blank cells divided by spectrofluorometer correction factor; for Normalized MFI ratio vIII/WT from 3 different concentrations, Mean: EGFRvIII over EGFR WT cell line, mean of ratios at 1, 5 and 10 µM
Source text: Since FITC fluorescence can be impacted by the nature of the amino acids in the peptide sequence and since the conjugation rate of FITC in the peptide synthesis can fluctuate, it was needed to measure a correction factor according to the fluorescence intensity of each peptide. As flow cytometry cannot analyze fluorescence of small molecules, a spectrofluorometer was used in similar conditions (excitation and emission) to the flow cytometry conditions. […] Fluorescence intensities at 525 nm of the FITC-Ahx-peptides in PBS were measured using a Varioskan plate reader (Thermo Scientific) and the SkanIt Software 5.0. Samples with concentrations between at 0.625, 1.25, 2.5, 5, 10 and 20 µM were prepared in triplicates using stock solutions of peptides in DMSO at 5 mM. Samples (100 µL) were analyzed in a 96-well plate using the following conditions: temperature of 25 °C, excitation wavelength at 490 nm, excitation bandwidth of 5 nm, emission wavelength at 525 nm, by step of 1 nm, measurement time 100 ms, and upper lens. Linear regressions were determined for each peptide. The correction factor was determined by dividing each slope by the arbitrary value 100 and was used to normalize the MFI obtained by flow cytometry.

CLTH/EGFR WT cells [5] = test: Flow cytometry binding of phage-displayed peptides, EGFR WT cells; assay type: cell-based, human; settings: phage-displayed peptide (M13), 1 h at 4 °C
Description: as §2, with “Anti-M13 conjugated to biotin (Abcam) was used as a primary antibody, anti-mouse IgG3 kappa monoclonal conjugated to biotin (Abcam) as isotype control and anti-biotin conjugated to PE (Miltenyi Biotec) as secondary antibody. A list of the antibodies is available in Table S3.” left out
(§3) Binding of the selected phages on 293T human embryo kidney, CLTH/EGFR WT and CLTH/EGFRvIII cells was characterized by flow cytometry. […] Cells were analyzed by flow cytometry on a MACSQuant Analyser 16 (Miltenyi Biotec) using the MACS Quantify software to acquire and process the data. Viobility™ 405/520 fixable dye was excited at 405 nm and fluorescence was collected with the 525/50 nm filter. PE was excited at 488 nm and fluorescence was collected with the 579/34 nm filter. Viable cells were gated, and PE fluorescence intensity was recorded.

293T cells [6] = test: Flow cytometry binding of phage-displayed peptides, 293T cells; assay type: cell-based, human; settings: phage-displayed peptide (M13), 1 h at 4 °C
Description: as §2, with “Anti-M13 conjugated to biotin (Abcam) was used as a primary antibody, anti-mouse IgG3 kappa monoclonal conjugated to biotin (Abcam) as isotype control and anti-biotin conjugated to PE (Miltenyi Biotec) as secondary antibody. A list of the antibodies is available in Table S3.” left out
as §3

EGFR WT = settings: prior art; cited from earlier work
Source text: Two short peptides intended for EGFR targeting of tumor cells have been described in the prior art.

[7] = biological target: epidermal growth factor tyrosine kinase receptor mutation variant III (EGFRvIII) on CLTH/EGFRvIII cells (human) (UniProt P00533); test: flow cytometry on cells; FITC-Ahx-peptides at 1, 5 or 10 µM (0.2% DMSO) on plated 293T, CLTH/EGFR WT and CLTH/EGFRvIII cells, 20 min at RT; FITC MFI of viable cells, normalised by blank cells and a spectrofluorometer correction factor

FALGEA-NH2 [FALGEA]
Kd (EGFRvIII): 3.7 µM

FITC-Ahx-VLGREEWSTSYW-CONH2
Normalized MFI at 10 µM, WT (CLTH/EGFR WT cells [1]): 4.0
Normalized MFI at 10 µM, 293T (293T cells [2]): 5.1

NESGITRIALQD [top peptide selected from the NGS data analysis]
specific binding of phage-displayed peptide to EGFRvIII cells (PE fluorescence) (CLTH/EGFRvIII cells [3]): did not show a specific binding

NPIVRSAEDGQL [top peptide selected from the NGS data analysis]
specific binding of phage-displayed peptide to EGFRvIII cells (PE fluorescence) (CLTH/EGFRvIII cells [3]): did not show a specific binding

VLGREEWSTSYW [novel 12-mer peptide ligand of EGFRvIII selected by phage display]
specific binding of phage-displayed peptide to EGFRvIII cells (PE fluorescence) (CLTH/EGFRvIII cells [3]): appeared to show specific binding to the EGFRvIII cells compared to the EGFR WT and the parental cell
cellular binding to EGFRvIII cells, qualitative (CLTH/EGFRvIII cells [4]; FITC-Ahx-peptide, 20 min at RT, flow cytometry): A shift of fluorescence was observed for the VLGREEWSTSYW peptide on EGFRvIII compared to 293T and EGFR WT cell lines; also recorded: much higher for VLGREEWSTSYW compared to the FALGEA control; also recorded: binds to EGFRvIII cells with high efficiency; also recorded: greater affinity in cell surface binding experiments; also recorded: weaker signal with the free C-terminal FITC labeled peptide compared to the phage displayed format of the same peptide
specificity for EGFRvIII cells versus EGFR WT cells, qualitative (CLTH/EGFRvIII cells [4]; FITC-Ahx-peptide, flow cytometry, MFI ratio vIII/WT at 1, 5, 10 µM): shows the specificity to EGFRvIII versus EGFR WT for VLGREEWSTSYW compared to the control peptide YHWYGYTPENVI; also recorded: good specificity compared to EGFR WT cells; also recorded: better selectivity to EGFRvIII cells than to EGFR WT cells compared to FALGEA
non-specific interactions (293T cell binding), qualitative (293T cells [2]; FITC-Ahx-peptide, flow cytometry): minimized for VLGREEWSTSYW compared to the YHWYGYTPENVI control; also recorded: less nonspecific interaction (293T cells); also recorded: significantly less nonspecific cellular binding

VLGREEWSTSYW-M13
specific binding of phage-displayed peptide to EGFRvIII cells (PE fluorescence) (CLTH/EGFRvIII cells [3]): showed a specific binding to EGFRvIII
difference in fluorescence intensity, anti-M13 vs secondary-only antibody, EGFR WT cells (CLTH/EGFR WT cells [5]): no significant difference in these fluorescence intensities
difference in fluorescence intensity, anti-M13 vs secondary-only antibody, 293T cells (293T cells [6]): no significant difference in these fluorescence intensities

YHWYGYTPENVI
reported binding to EGFR WT, qualitative (YHWYGYTPENVI) (EGFR WT): proven to bind to EGFR WT

{FITC-Ahx}-FALGEA-NH2 (SMILES CC(C)C[C@H](NC(=O)[C@H](C)NC(=O)[C@H](Cc1ccccc1)NC(=O)CCCCCNC(=S)Nc1ccc2c(c1)C(=O)OC21c2ccc(O)cc2Oc2cc(O)ccc21)C(=O)NCC(=O)N[C@@H](CCC(=O)O)C(=O)N[C@@H](C)C(N)=O) [FALGEA control peptide with FITC-Ahx tag at the N-terminus, reference compound]
Normalized MFI at 10 µM, vIII (CLTH/EGFRvIII cells [4]; 20 min at RT): 1.8
Normalized MFI ratio vIII/WT from 3 different concentrations, Mean (CLTH/EGFRvIII cells [4]): 2.50
Normalized MFI at 10 µM, WT (CLTH/EGFR WT cells [1]): 0.7
Normalized MFI at 10 µM, 293T (293T cells [2]): 0.9

{FITC-Ahx}-YHWYGYTPENVI-NH2 (SMILES CC[C@H](C)[C@H](NC(=O)[C@@H](NC(=O)[C@H](CC(N)=O)NC(=O)[C@H](CCC(=O)O)NC(=O)[C@@H]1CCCN1C(=O)[C@@H](NC(=O)[C@H](Cc1ccc(O)cc1)NC(=O)CNC(=O)[C@H](Cc1ccc(O)cc1)NC(=O)[C@H](Cc1c[nH]c2ccccc12)NC(=O)[C@H](Cc1c[nH]cn1)NC(=O)[C@H](Cc1ccc(O)cc1)NC(=O)CCCCCNC(=S)Nc1ccc2c(c1)C(=O)OC21c2ccc(O)cc2Oc2cc(O)ccc21)[C@@H](C)O)C(C)C)C(N)=O) [reference compound]
Normalized MFI at 10 µM, vIII (CLTH/EGFRvIII cells [4]; 20 min at RT): 9.7
Normalized MFI ratio vIII/WT from 3 different concentrations, Mean (CLTH/EGFRvIII cells [4]): 1.80
Normalized MFI at 10 µM, WT (CLTH/EGFR WT cells [1]): 4.5
Normalized MFI at 10 µM, 293T (293T cells [2]): 7.6

B1: FITC-Ahx-FALGEA-CONH2 (peptide)
peptide: {FITC-Ahx}-FALGEA-NH2
SMILES: CC(C)C[C@H](NC(=O)[C@H](C)NC(=O)[C@H](Cc1ccccc1)NC(=O)CCCCCNC(=S)Nc1ccc2c(c1)C(=O)OC21c2ccc(O)cc2Oc2cc(O)ccc21)C(=O)NCC(=O)N[C@@H](CCC(=O)O)C(=O)N[C@@H](C)C(N)=O
normalized MFI at 10 µM [7]: 1.8
normalized MFI ratio vIII/WT from 3 different concentrations (mean) [7]: 2.5
